Results from patent US20230135758A1, “[…] 1-ALPHA INHIBITORS AND USES THEREOF” (The Regents of the University of California, priority 2020, published 2023).
Entries after “also recorded” stand apart in the source; their conditions may differ. Read-outs that look alike come from different tables or passages of the source.

Key:
[1] = test system: HCT116, H929, and MM1S cells; assay: Proliferation assay (transient exposure, followed by washout), CellTiter Glo; assay type: cell-based; details: for antiproliferative activity after transient exposure and washout: 1 h or 4 h exposure, stringent washout, 72 h compound-free media, HCT116, H929, MM1S
Experimental: 0.6×10^6 cells were seeded in 3 mL complete growth media per well in 6-well plates. […] For adherent cells, growth media was carefully removed, cells were washed with warm PBS twice (2×short wash), and followed by 5 min incubation in warm media at 37° C. (long wash). After repeating the “short-long” washing cycle 3 times, cells were resuspended in warm media and plated in flat-bottom 96-well plates (100 uL/well) at equal cell number. For suspension cells, cells were collected and spun down at 300×g for 3 min. Supernatant was carefully removed, cells were then washed with warm PBS twice (2× short wash), followed by 5 min incubation in warm media at 37° C. (long wash). After repeating the “short-long” washing cycle 3 times, cells were resuspended in warm media and plated in flat-bottom 96-well plates (100 uL/well) at equal cell number. After the indicated times post-washout, CellTiter Glo (Promega, Madison, Wis.) was used to asses the cell viability per the manufacturer's instructions. Briefly, after adding 100 uL CellTiter Glo reagent to each well, the plate was rocked at room temperature for 5-10 min, and luminescence intensity was measured. Proliferation curves were generated by first normalizing luminescence intensity in each well to the average T=0 value for each compound. Normalized luminescence intensity was plotted in GraphPad Prism (triplicate values, mean±SD).

[2] = test system: Eμ-Myc/+ lymphoma cells; assay: Eμ-Myc mouse lymphoma model; assay type: in vivo
Experimental: Mouse studies were approved by the University of California, San Francisco Institutional Animal Care and Use Committee (IACUC). Eμ-Myc/+ mice were purchased from the Jackson Laboratory. For the Eμ-Myc tumor model, allograft mice were generated using spontaneous lymph node tumors derived from Eμ-Myc mice. 5×10^5 Eμ-Myc/+ lymphoma cells were injected via the tail vein into eight-week-old male C57BL/6J mice. Seven days after lymphoma cell injection, mice were randomized to receive vehicle (10% EtOH/Kolliphor EL in water, n=5 mice) or (S,R)-A3 (n=5 mice) by intraperitoneal injection every other day (3 times per week) until the endpoint based on the IACUC-approved protocol. Eμ-Myc mice in the (S,R)-A3 treatment arm received (S,R)-A3 at a dose of 2 mg/kg for the first 21 days and 1-2 mg/kg after treatment day 21 according to their body weights (BW): BW>26 g, 2 mg/kg; BW 25-26 g, 1.5 mg/kg; BW 24-25 g, 1 mg/kg).
We next tested the effect of (S,R)-A3 in a preclinical mouse model of B-cell lymphoma using an intermittent dosing regimen (QOD×3, every other day, 3 doses per week via intraperitoneal injection). Eμ-Myc/+ mice are a well-characterized mouse lymphoma model that overexpress MYC under the transcriptional control of the IgH enhancer element. These mice recapitulate the genetic lesion underlying Burkitt's Lymphoma. Eμ-Myc/+ lymphoma cells were injected via the tail vein into eight-week-old male C57BL/6J mice. Seven days after lymphoma cell injection, mice were randomized to receive vehicle or (S,R)-A3 by intraperitoneal injection (QOD×3, n=5 mice/treatment arm).

[3] = test system: HCT116, H929, and MM1S cells; assay: Proliferation assay (continuous exposure), 72 h, Alamar Blue; assay type: cell-based; details: 72 h continuous
Experimental: To assess in vitro anticancer activity, HCT116, H929, and MM1S cells were treated continuously for 72 hours with increasing concentrations of (S,S)-A3, (S,R)-A3, or dA3 (cyclic peptide 4 (Carelli, Taunton, et al., eLife, 2015), here termed “dA3” (deoxy-A3)). Cell viability was then assessed using the Alamar Blue assay.

[4] = test system: protein synthesis in HCT116 cells; assay: Protein synthesis inhibition assay (transient exposure, followed by washout), O-propargyl puromycin incorporation; assay type: cell-based; details: 100 nM for 4 h, 24 h compound-free media
Experimental: HCT116 cells at 80% confluency in 24-well plates were incubated with compounds with at 100 nM for 4 hours at 37° C. O-propargyl-puromycin (30 uM final concentration) was then added, and the cells were incubated for 1 hour at 37° C. Media was carefully removed, cells were washed with warm PBS twice (2× short wash), followed by 5 min incubation in warm medium at 37° C. (long wash). After repeating the “short-long” washing cycle for 3 times, cells were then resuspended in warm media and incubated at 37° C. After the indicated time post-washout, media was removed, and cells were trypsinized, collected, and washed twice with ice-cold PBS before transferring to a 96-well V bottom plate. 100 uL Zombie Red (BioLegend, San Diego, Calif.) solution was added to each well and incubated for 30 min at RT in the dark. Cells were then washed with 2% FBS in PBS buffer before fixed with 200 uL of 4% PFA in PBS for 15 min on ice in dark. After washing the cells with 2% FBS in PBS buffer, 200 uL permeabilization buffer (3% FBS, 0.1% Saponin in PBS) was added to each well, and cells were incubated for 5 min at RT in the dark. Cells were then washed and resuspended in 25 uL permeabilization buffer. 100 uL click chemistry mix (50 mM HEPES pH=7.5, 150 mM NaCl, 400 uM TCEP, 250 uM TBTA, 5 uM CF405M-Azide (Biotium, Fremont, Calif.), 200 uM Cu2SO4) was added to each well, and cells were incubated at RT in dark. After the overnight incubation, cells were washed with permeabilization buffer followed by FACS buffer (2% FBS, 1% P/S, 2 mM EDTA, in PBS w/o Ca/Mg). Cells were then resuspended in 200 uL FACS buffer and filtered before FACS analysis (FACSCanto II, Becton Dickinson, Franklin Lakes, N.J.). Only single, live cells were analyzed (FlowJo), as judged by forward/side scattering and the absence of Zombie Red staining. Protein synthesis inhibition curves were generated by first normalizing intensity to the cycloheximide-treated (50 μg/mL for 1 h, maximum inhibition) and DMSO-treated control samples. Normalized intensity was plotted in GraphPad Prism.

[5] = test system: eEF1A-mutant (A399V) HCT116 cells; details: read-out: IC50, cell proliferation in eEF1A-mutant (A399V) cells; 72 h; AlamarBlue
Experimental: Cell proliferation (% DMSO control) was quantified using AlamarBlue. […] Data points (% DMSO control) are mean values±SD (n=3).
Adherent cells were briefly trypsinized and repeatedly pipetted to produce a homogeneous cell suspension. 2,500 cells were seeded in 100 uL complete growth media per well in 96-well clear-bottom plates. Suspension cells were repeatedly pipetted to produce a homogeneous cell suspension. 10,000 cells were seeded in 100 uL complete growth media per well in 96-well clear-bottom plates. After allowing cells to grow/adhere overnight, cells were treated with 25 uL/well 5×drug stocks (0.1% DMSO final) and incubated for 72 hr. AlamarBlue (Life Technologies, Grand Island, N.Y.) was used to assess cell viability per the manufacturer's instructions. Briefly, 12.5 uL alamarBlue reagent was added to each well, and plates were incubated at 37° C. Fluorescence intensity was measured every 30 min to determine the linear range for each assay (Ex 545 nm, Em 590 nm, SPARK, Tecan Austria GmbH, Austria). Proliferation curves were generated by first normalizing fluorescence intensity in each well to the DMSO-treated plate average. Normalized fluorescence intensities were plotted in GraphPad Prism (GraphPad, La Jolla, Calif.), and IC50 values calculated from nonlinear regression curves. The reported IC50 values represent the average of at least three independent determinations (±SD).

[6] = test system: protein synthesis in HCT116 cells; assay: Protein synthesis inhibition assay (continuous exposure), O-propargyl puromycin incorporation; assay type: cell-based; details: 24 h treatment, 1 h OPP pulse, read-out: IC50, rate of protein synthesis
Experimental: HCT116 cells at 80% confluency in 12-well plates were incubated with compounds with varying concentrations for 10 min or 24 hours at 37° C. After the indicated time, O-propargyl-puromycin (30 μM final concentration) was added, and the cells were incubated for 1 hour at 37° C. Subsequently, media was removed, and cells were trypsinized, collected, and washed twice with ice-cold PBS before transferring to a 96-well V bottom plate. 100 uL Zombie Red (BioLegend, San Diego, Calif.) solution was added to each well and incubated for 30 min at RT in dark. Cells were then washed with 2% FBS in PBS buffer before fixed with 200 uL of 4% PFA in PBS for 15 min on ice in dark. After washing the cells with 2% FBS in PBS buffer, 200 uL permeabilization buffer (3% FBS, 0.1% saponin in PBS) was added to each well, and the cells were incubated for 5 min at RT in the dark. Cells were then washed and resuspended in 25 uL permeabilization buffer. 100 uL click chemistry mix (50 mM HEPES pH=7.5, 150 mM NaCl, 400 uM TCEP, 250 uM TBTA, 5 uM CF405M-Azide (Biotium, Fremont, Calif.), 200 uM Cu2SO4) was added to each well, and cells were incubated at RT in the dark. […] Only single, live cells were analyzed (FlowJo), as judged by forward/side scattering and the absence of Zombie Red staining. […]

[7] = FIG. 14
Experimental: (§1) Table printed on a drawing sheet, FIG. 14
(§2) The patent's description of the figure: FIG. 14. SRA3 pharmacokinetic data. PK studies were performed in C57BL/6 mice
First reader's note: IP route is given in the head cell of the first column; the plot legend on the same sheet prints IP 2 mg/kg in mouse.

[8] = FIG. 14; remark: listed apart in the source
Experimental: as §1, §2
First reader's note: IV route is given in the head cell of the first column; the plot legend on the same sheet prints IV 2 mg/kg in mouse.

[9] = test system: HCT116 cells; assay: Cell viability, Alamar Blue, 24 h treatment; assay type: cell-based; details: relative to DMSO controls
Experimental: 5,000 HCT116 cells were seeded in 100 μL complete growth media per well in 96-well plates.

[10] = molecular target: eEF1A (Elongation Factor 1-alpha), wild type (UniProt P68104); assay: cell-based or functional assay
Chain of eEF1A (Elongation Factor 1-alpha), wild type (P68104 2-462): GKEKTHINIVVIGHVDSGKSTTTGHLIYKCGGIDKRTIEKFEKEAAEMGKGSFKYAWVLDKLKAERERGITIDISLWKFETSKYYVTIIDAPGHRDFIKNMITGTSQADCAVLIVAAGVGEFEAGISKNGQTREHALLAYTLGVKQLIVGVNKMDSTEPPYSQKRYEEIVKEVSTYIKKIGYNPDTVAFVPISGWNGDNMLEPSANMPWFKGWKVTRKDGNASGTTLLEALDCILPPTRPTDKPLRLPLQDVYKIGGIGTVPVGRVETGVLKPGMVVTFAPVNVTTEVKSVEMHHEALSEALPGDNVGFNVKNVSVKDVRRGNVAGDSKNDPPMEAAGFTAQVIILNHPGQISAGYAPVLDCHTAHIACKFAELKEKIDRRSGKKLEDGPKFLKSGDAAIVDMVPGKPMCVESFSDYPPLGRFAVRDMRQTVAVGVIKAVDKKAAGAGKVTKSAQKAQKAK

[11] = C57BL/6, mouse, in vivo, ip, 2 mg/kg
[12] = C57BL/6, mouse, in vivo, iv, 2 mg/kg

Compound: C=C[C@H](C)C[C@@H]1NC(=O)[C@H]([C@H](O)C(C)C)N(C)C(=O)[C@H](C)N(C)C(=O)[C@@H]([C@@H](C)CC)NC(=O)[C@@H]([C@H](O)C(C)C)NC(=O)[C@H]2CCCCN2C(=O)[C@H](C)N(C)C1=O [(S,R)-A3]
- antiproliferative activity after transient exposure and washout [1]: profound and sustained loss of cell viability; also recorded: strong antiproliferative activity
- maximum BW loss ([2]; 2 mg/kg (1-2 mg/kg after day 21) intraperitoneal, QOD×3): < 8%
- survival ([2]; 2 mg/kg (1-2 mg/kg after day 21) intraperitoneal, QOD×3, P=0.0027): significantly improved survival
- tumor growth ([2]; 2 mg/kg (1-2 mg/kg after day 21) intraperitoneal, QOD×3, start 7 days after cell injection): reduced tumor growth
- efficacy in mouse lymphoma model ([2]; Eμ-Myc mouse model of B-cell lymphoma): efficacious
- reduction of cell viability, continuous treatment [3]: low nanomolar concentrations
- recovery of protein synthesis after washout [4]: sustained, washout-resistant manner

Compound: C=C[C@H](C)C[C@@H]1NC(=O)[C@H]([C@@H](O)C(C)C)N(C)C(=O)[C@H](C)N(C)C(=O)[C@@H]([C@@H](C)CC)NC(=O)[C@@H]([C@H](O)C(C)C)NC(=O)[C@H]2CCCCN2C(=O)[C@H](C)N(C)C1=O [(S,S)-A3]
- antiproliferative activity after transient exposure and washout [1]: less efficacious
- reduction of cell viability, continuous treatment [3]: low nanomolar concentrations
- recovery of protein synthesis after washout [4]: partially recovered

Compound: C=C[C@H](C)C[C@@H]1NC(=O)[C@H]([C@H](O)C(C)C)N(C)C(=O)[C@H](C)N(C)C(=O)[C@@H]([C@@H](C)CC)NC(=O)[C@@H]([C@H](O)C(C)C)NC(=O)[C@H]2CCCCN2C(=O)[C@H](C)N(C)C1=O [SR-A3]
- IC50 [5]: > 1000 nM
- cell proliferation after washout ([1]; HCT116, 100 nM for 4 h, rigorous washout, 72-h washout period): nearly abolished
- IC50 [6]: ~20 nM
- recovery of protein synthesis after washout [4]: sustained inhibition

Compound: C=C[C@H](C)C[C@@H]1NC(=O)[C@H]([C@H](O)C(C)C)N(C)C(=O)[C@H](C)N(C)C(=O)[C@@H]([C@@H](C)CC)NC(=O)[C@@H]([C@H](O)C(C)C)NC(=O)[C@H]2CCCCN2C(=O)[C@H](C)N(C)C1=O [SRA3]
- AUCInf [7]: 384 ng·h/mL
- AUCInf/D [7]: 192 kg·ng·h/mL/mg
- AUClast [7]: 347 ng·h/mL
- F (%) [7]: 97.2%
- tmax [7]: 0.583 h
- Cmax [7, 11]: 86.6 ng/mL
- MRT [7, 11]: 8.63 h
- half-life [7, 11]: 8.21 h
- AUCInf [8]: 395 ng·h/mL
- AUClast [8]: 367 ng·h/mL
- CL [8]: 87.2 mL/min/kg
- Vss [8]: 42.0 L/kg
- Vz [8]: 52.7 L/kg
- C0 [8, 12]: 204 ng/mL
- MRT [8, 12]: 7.97 h
- half-life [8, 12]: 6.79 h

Compound: C=C[C@H](C)C[C@@H]1NC(=O)[C@H]([C@H](O)C(C)C)N(C)C(=O)[C@H](C)N(C)C(=O)[C@@H]([C@H](C)CC)NC(=O)[C@@H]([C@H](O)C(C)C)NC(=O)[C@H]2CCCCN2C(=O)[C@H](C)N(C)C1=O [WHY3179]
- IC50 [9]: 6.3 nM

Compound: C=C[C@H](C)C[C@@H]1NC(=O)[C@H]([C@H](O)C(C)C)N(C)C(=O)[C@H](C)N(C)C(=O)[C@@H]([C@@H](C)CC)NC(=O)[C@@H]([C@H](O)C2CC2)NC(=O)[C@H]2CCCCN2C(=O)[C@H](C)N(C)C1=O [WHY4014]
- IC50 [9]: 14.8 nM

Compound: ternatin-4 (peptide)
- cell proliferation rate after transient exposure (100 nM, 4 h) and washout, HCT116 cells, % of DMSO control (% of DMSO control) [10]: 50
- protein synthesis rate 24 h after washout (100 nM for 4 h), HCT116 cells, % of DMSO control (% of DMSO control) [10]: 30
- rate of protein synthesis (OPP incorporation), HCT116 cells, 10 min treatment; potency relative to SR-A3 [10]: 10 fold
